# Reference: patent USH2260H1, “Stents combined with paclitaxel derivatives” (Angiotech International AG, priority 2005, dated 2011)
# “Also recorded” adds a separate entry of the source.
# How the values were obtained:
# collagenase expression = assay: Effect of other anti-microtubules on IL-1 induced collagenase expression in primary chondrocytes; assay type: cell-based, calf; details: pre-incubation 6 hours, IL-1 20 ng/ml 18 hours; FIGS. 5A-H
# Procedure: Primary chondrocyte cultures were freshly isolated from calf cartilage. The cells were plated at 2.5×10^6 per ml in 100×20 mm culture dishes and incubated in Ham's F12 medium containing 5% FBS overnight at 37° C. The cells were starved in serum-free medium overnight and then treated with anti-microtubule agents at various concentrations for 6 hours. IL-1 (20 ng/ml) was then added to each plate and the plates incubated for an additional 18 hours. Total RNA was isolated by the acidified guanidine isothiocyanate method and subjected to electrophoresis on a denatured gel. Denatured RNA samples (15 μg) were analyzed by gel electrophoresis in a 1% denatured gel, transferred to a nylon membrane and hybridized with the ^32P-labeled collagenase cDNA probe. ^32P-labeled glyceraldehyde phosphate […] (GAPDH) cDNA as an internal standard to ensure roughly equal loading. The exposed films were scanned and quantitatively analyzed with IMAGEQUANT.
# human fibroblasts = assay: Screening assay, cell proliferation of fibroblasts (CYQUANT); assay type: cell-based; details: Fibroblast, 72 hours, average of n=4 experiments, FIG. 8
# Procedure: Fibroblasts at 70-90% confluency were trypsinized, replated at 600 cells/well in media in 96-well plates and allowed to attach overnight. Paclitaxel was prepared in DMSO at a concentration of 10^−2 M and diluted 10-fold to give a range of stock concentrations (10^−8 M to 10^−2 M). […] Each drug concentration was tested in triplicate wells.
# To terminate the assay, the media was removed by gentle aspiration. A 1/400 dilution of CYQUANT 400X GR dye indicator (Molecular Probes; Eugene, Oreg.) was added to 1X Cell Lysis buffer, and 200 μL of the mixture was added to the wells of the plate. Plates were incubated at room temperature, protected from light for 3-5 minutes.
# [1] = tested on: AP-1 DNA binding activity; assay: IL-1 induced AP-1 DNA binding activity, gel mobility shift with chondrocyte extracts; assay type: cell-based; details: chondrocytes pretreated with 10^−7 to 10^−5 M for 24 hours, IL-1β 20 ng/ml; FIG. 4C
# Procedure: Binding activity was assayed with a radiolabeled human AP-1 sequence probe and gel mobility shift assay. Extracts from chondrocytes untreated or treated with various amounts of paclitaxel (10^−7 to 10^−5 M) followed by IL-1β (20 ng/ml) were incubated with excess probe on ice for 30 minutes, followed by non-denaturing gel electrophoresis. The “com” lane contains excess unlabeled AP-1 oligonucleotide. The results shown are representative of three independent experiments.
# [2] = tested on: Chick Chorioallantoic Membrane (CAM); assay: Chick chorioallantoic membrane (CAM) angiogenesis assay
# MMP-1 mRNA (collagenase) = assay: IL-1 induced MMP-1 (collagenase) mRNA expression in chondrocytes, Northern blot; details: pretreatment 24 hours
# MMP-3 mRNA (stromelysin) = assay: IL-1 induced MMP-3 (stromelysin) mRNA expression in chondrocytes, Northern blot; details: pretreatment 24 hours
smiles,measurement,setting,value
O=C(CCC(=O)ON1C(=O)CCC1=O)OCCOC(=O)CCC(=O)ON1C(=O)CCC1=O [ethylene glycol bis-(succinimidylsuccinate)],concentration (as low as) preventing IL-1-induced collagenase expression,collagenase expression,100 nM
CC(O)CC(C)(C)O (centres unmarked) [hexylene glycol],concentration (as low as) preventing IL-1-induced collagenase expression,collagenase expression,100 nM
CC(=O)O[C@H]1C(=O)[C@@]2(C)[C@H]([C@H](OC(=O)c3ccccc3)[C@]3(O)C[C@H](OC(=O)[C@H](O)[C@@H](NC(=O)c4ccccc4)c4ccccc4)C(C)=C1C3(C)C)[C@]1(OC(C)=O)CO[C@@H]1C[C@@H]2O [paclitaxel],IC50,human fibroblasts,23 nM
same,IL-1 induced AP-1 binding activity,[1],IL-1 induced binding activity decreased
same,angiogenesis in the CAM,[2]; 48 hours after application,angiogenesis was inhibited
same,"maximal avascular zone, avascular gradient scale","[2]; within 48 hours, depending on concentration",3
same,collagenase mRNA inhibition at 10^−5 M,MMP-1 mRNA (collagenase); 10^−5 M paclitaxel,complete inhibition
same,collagenase mRNA levels,"MMP-1 mRNA (collagenase); then IL-1β, FIG. 4D",inhibited by pretreatment with paclitaxel; also recorded: significantly reduced
same,stromelysin mRNA inhibition at 10^−5 M,MMP-3 mRNA (stromelysin); 10^−5 M paclitaxel,complete inhibition
same,stromelysin mRNA levels,"MMP-3 mRNA (stromelysin); then IL-1β, FIG. 4D",inhibited by pretreatment with paclitaxel; also recorded: significantly reduced
Nc1ncnc2c1ccn2[C@@H]1O[C@H](CO)[C@@H](O)[C@H]1O [tubercidin],concentration (as low as) preventing IL-1-induced collagenase expression,collagenase expression,100 nM
